≈ marks a conversion by molar mass, not a printed value. Read-outs that look alike come from different tables or passages of the source.
What was measured:
Solubility in PBS = type: physicochemical
Summary of the method: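 PBS sample ultracentrifuged; supernatant run on HPLC vs. 50 μM peptide in DMSO standard. Solubility = (PBS peak area / DMSO peak area) × 50 uM.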

CHI Log D procedure = type: physicochemical; settings: for CHI Log D: pH 7.4
[1] = target: T1, full-length beta-Catenin (Uniprot ID P35222) (Homo sapiens, UniProt P35222); assay: Fluorescence polarization IC50 (beta-catenin / 5FAM-TCF4 10-53 competition); type: binding
T1 construct: 10 nM full-length beta-Catenin (Uniprot ID P35222)
T1 sequence (P35222 1-781): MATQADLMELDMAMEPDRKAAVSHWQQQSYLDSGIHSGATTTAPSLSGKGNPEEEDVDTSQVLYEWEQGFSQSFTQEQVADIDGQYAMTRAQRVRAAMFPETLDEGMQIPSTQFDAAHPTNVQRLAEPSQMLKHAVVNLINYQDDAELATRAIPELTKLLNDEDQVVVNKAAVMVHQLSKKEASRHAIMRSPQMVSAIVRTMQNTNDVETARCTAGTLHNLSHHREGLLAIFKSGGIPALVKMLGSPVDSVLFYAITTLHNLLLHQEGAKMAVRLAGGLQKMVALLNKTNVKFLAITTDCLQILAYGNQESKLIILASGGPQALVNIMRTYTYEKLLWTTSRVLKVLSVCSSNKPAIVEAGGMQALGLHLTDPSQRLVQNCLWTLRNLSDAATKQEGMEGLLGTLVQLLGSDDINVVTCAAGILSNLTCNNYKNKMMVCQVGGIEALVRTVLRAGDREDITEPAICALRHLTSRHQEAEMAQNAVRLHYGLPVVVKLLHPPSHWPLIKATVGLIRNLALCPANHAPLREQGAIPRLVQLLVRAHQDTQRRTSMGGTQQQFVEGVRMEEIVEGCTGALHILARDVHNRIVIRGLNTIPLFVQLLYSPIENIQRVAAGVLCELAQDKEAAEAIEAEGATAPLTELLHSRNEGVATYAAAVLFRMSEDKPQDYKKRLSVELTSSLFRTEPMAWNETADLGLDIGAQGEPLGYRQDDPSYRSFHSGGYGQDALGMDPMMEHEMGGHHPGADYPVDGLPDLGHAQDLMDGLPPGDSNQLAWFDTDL

[2] = fluorescence polarization, read-out: beta-Catenin FP IC50
[3] = fluorescence polarization, beta-catenin, read-out: FP EC50

**Q.** With `CC(=O)N1CCC[C@]12CC=CCCCC1(CCCC=CCCCCCC[C@@](C)(C(=O)N[C@@H](Cc3ccccc3)C(=O)N[C@@H](Cc3csc4ccccc34)C(=O)N[C@@H](Cc3c[nH]cn3)C(N)=O)NC(=O)[C@H](CCCNC(N)=O)NC(=O)[C@H](Cc3ccccc3)NC(=O)[C@H](C)NC(=O)[C@H](C)NC(=O)[C@H](CCC(=O)O)NC(=O)[C@H](CC(=O)O)NC1=O)NC(=O)[C@H](CC(C)C)NC(=O)[C@H](CC(=O)O)NC2=O` (stereo partly drawn) [I-616, Ac-PL3-Asp-Leu-B5-Asp-Glu-Ala-Ala-Phe-Cit-S8-Phe-BztA-His-NH2] as the molecule, how does the “Solubility” value (Solubility in PBS) read?
**A.** Its value is 10 µM (≈ 19.2 µg/mL).

**Q.** And the chromatographic logD (CHI Log D procedure; pH 7.4, CHI Log D)?
**A.** Its chromatographic logD is 2.41.

**Q.** What about the IC50 [1, 2] of the same molecule?
**A.** Its IC50 is 108 nM.

**Q.** For `CCN(CC(=O)O)C[C@@H]1NC(=O)[C@H](CC(=O)O)NC(=O)C2(CCCC=CCCCOC(=O)N3CC[C@@](C(=O)N[C@@H](Cc4ccsc4)C(=O)N[C@@H](Cc4csc5ccccc45)C(=O)N[C@@H](CCC(N)=O)C(N)=O)(C3)NC(=O)[C@H](CC(N)=O)NC(=O)[C@H](Cc3ccccc3)NC(=O)[C@H](C)NC(=O)[C@H](C)NC1=O)CCCC=CC[C@]1(CCCN1C(C)=O)C(=O)N[C@@H](CC(=O)O)C(=O)N[C@@H](CC(C)(C)C)C(=O)N2` (stereo partly drawn) [I-965, Ac-PL3-Asp-Npg-B5-Asp-EtGA-Ala-Ala-Phe-Asn-PyrS2-3Thi-BztA-Gln-NH2], which “Solubility” value (Solubility in PBS) is on record?
**A.** Its value is 45 µM (≈ 88.9 µg/mL).

**Q.** And the “CHI Log D” value (CHI Log D procedure)?
**A.** Its value is 1.903.

**Q.** What about the IC50 [1, 3] of the same molecule?
**A.** Its IC50 is 1780 nM.

**Q.** And the IC50 ([1]; read-out: beta-Catenin FP IC50)?
**A.** The IC50 was 1780 nM.

**Q.** For `CC[C@@H](C)[C@@H]1NC(=O)[C@H](CC(=O)O)NC(=O)[C@]2(CC=CCCCC3(CCCC=CCCCCCC[C@@](C)(C(=O)N[C@@H](Cc4ccccc4)C(=O)N[C@@H](Cc4csc5ccccc45)C(=O)N[C@@H](CCC(N)=O)C(N)=O)NC(=O)[C@H](CC(N)=O)NC(=O)[C@H](Cc4ccccc4)NC(=O)[C@H](C)NC(=O)[C@H](C)NC(=O)[C@H](CCC(=O)O)NC(=O)[C@H](CC(=O)O)NC3=O)NC1=O)CCCN2C(C)=O` (stereo partly drawn) [I-476, Ac-PL3-Asp-aIle-B5-Asp-Glu-Ala-Ala-Phe-Asn-S8-Phe-BztA-Gln-NH2], which “Solubility” value (Solubility in PBS) is on record?
**A.** Its value is 49 µM (≈ 91.6 µg/mL).

**Q.** And the “CHI Log D” value (CHI Log D procedure)?
**A.** The value was 2.317.

**Q.** What about the IC50 [1, 2] of the same molecule?
**A.** Its IC50 is 48 nM.

**Q.** What about the IC50 ([1]; read-out: FP EC50) of the same molecule?
**A.** The IC50 was 48 nM.

**Q.** With `CC(=O)N1CCC[C@]12CC=CCCCC1(CCCC=CCCCCCC[C@@](C)(C(=O)N[C@@H](Cc3ccccc3)C(=O)N[C@@H](Cc3csc4ccccc34)C(=O)N[C@@H](CCC(N)=O)C(N)=O)NC(=O)[C@H]([C@@H](C)O)NC(=O)[C@H](Cc3ccccc3)NC(=O)[C@H](C)NC(=O)[C@H](C)NC(=O)[C@H](CCC(=O)O)NC(=O)[C@H](CC(=O)O)NC1=O)NC(=O)[C@H](CC(C)C)NC(=O)[C@H](CC(=O)O)NC2=O` (stereo partly drawn) [I-622, Ac-PL3-Asp-Leu-B5-Asp-Glu-Ala-Ala-Phe-Thr-S8-Phe-BztA-Gln-NH2] as the molecule, how does the “Solubility” value (Solubility in PBS) read?
**A.** The value was 45 µM (≈ 83.5 µg/mL).

**Q.** And the “CHI Log D” value (CHI Log D procedure)?
**A.** Its value is 2.453.

**Q.** And the IC50 [1, 2]?
**A.** Its IC50 is 230 nM.

**Q.** What about the IC50 ([1]; read-out: FP EC50) of the same molecule?
**A.** The IC50 was 230 nM.

**Q.** With `CC[C@H](C)[C@@H]1NC(=O)[C@H](CC(=O)O)NC(=O)[C@]2(CC=CCCCC3(CCCC=CCCCCCC[C@@](C)(C(=O)N[C@@H](Cc4ccccc4)C(=O)N[C@@H](Cc4csc5ccccc45)C(=O)N4CCC[C@H]4C(N)=O)NC(=O)[C@H](CCC(N)=O)NC(=O)[C@H](Cc4ccccc4)NC(=O)[C@H](C)NC(=O)[C@H](C)NC(=O)[C@H](CCC(=O)O)NC(=O)[C@H](CC(=O)O)NC3=O)NC1=O)CCCN2C(C)=O` (stereo partly drawn) [I-638, Ac-PL3-Asp-Ile-B5-Asp-Glu-Ala-Ala-Phe-Gln-S8-Phe-BztA-Pro-NH2] as the molecule, how does the “Solubility” value (Solubility in PBS) read?
**A.** Its value is 48 µM (≈ 88.9 µg/mL).

**Q.** What about the “CHI Log D” value (CHI Log D procedure) of the same molecule?
**A.** Its value is 2.622.

**Q.** And the IC50 [1, 2]?
**A.** Its IC50 is 3880 nM.

**Q.** And the IC50 ([1]; read-out: FP EC50)?
**A.** Its IC50 is 3880 nM.

**Q.** Which results are given for `CC(=O)N1CCC[C@]12CC=CCCCC1(CCCC=CCCCCCC[C@@](C)(C(=O)N[C@@H](Cc3ccccc3)C(=O)N[C@@H](Cc3csc4ccccc34)C(=O)N[C@@H](CCC(N)=O)C(N)=O)NC(=O)[C@H](CC(N)=O)NC(=O)[C@H](Cc3ccccc3)NC(=O)[C@H](C)NC(=O)[C@H](C)NC(=O)[C@H](CC(=O)O)NC(=O)[C@H](CC(=O)O)NC1=O)NC(=O)[C@H](C)NC(=O)[C@H](CC(=O)O)NC2=O` (stereo partly drawn) [I-344, Ac-PL3-Asp-Ala-B5-Asp-Asp-Ala-Ala-Phe-Asn-S8-Phe-BztA-Gln-NH2]?
**A.** Solubility (Solubility in PBS): 44 µM (≈ 79.8 µg/mL); CHI Log D (CHI Log D procedure): 1.977; IC50 ([1]; Table E2-1, read-out: beta-Catenin FP IC50): 42 nM; IC50 [1, 3]: 42 nM

**Q.** What does the source list for `CC(=O)N1CCC[C@]12CC=CCCCC1(CCCC=CCCCOC(=O)N3CC[C@@](C(=O)N[C@@H](Cc4ccsc4)C(=O)N[C@@H](Cc4csc5ccccc45)C(=O)N[C@@H](CCC(N)=O)C(N)=O)(C3)NC(=O)[C@H]([C@@H](C)O)NC(=O)[C@H](Cc3ccccc3)NC(=O)[C@H](C)NC(=O)[C@H](C)NC(=O)[C@H](Cc3cccc(C(=O)O)c3)NC(=O)[C@H](CC(=O)O)NC1=O)NC(=O)[C@H](CC(C)(C)C)NC(=O)[C@H](CC(=O)O)NC2=O` (stereo partly drawn) [I-981, Ac-PL3-Asp-Npg-B5-Asp-3COOHF-Ala-Ala-Phe-Thr-PyrS2-3Thi-BztA-Gln-NH2]?
**A.** Solubility (Solubility in PBS): 45 µM (≈ 89.2 µg/mL); CHI Log D (CHI Log D procedure): 1.761; IC50 [1, 3]: 199 nM; IC50 ([1]; read-out: beta-Catenin FP IC50): 374 nM

Reference: patent US20240116985A1, “STAPLED PEPTIDES AND METHODS THEREOF” (priority 2020, published 2024)
